Reference: publication PMC8879803, “Identification of a Common Pharmacophore for Binding to MMP2 and RGD Integrin: Towards a Multitarget Approach to Inhibit Cancer Angiogenesis and Metastasis” (Molecules, 2022)

Columns and labels:
MMP2 = target: T1, MMP2 (Homo sapiens, UniProt P08253); test: Fluorometric enzyme inhibition assay with fluorogenic substrate Mca-Lys-Pro-Leu-Gly-Leu-Dpa-Ala-Arg-NH2 (MMP2); format: biochemical; conditions: for inhibition at 10 µM: 10 μM compound; for inhibition at 10 µM / inhibition at 50 µM / IC50: enzyme 1 nM; for inhibition at 10 µM / inhibition at 50 µM: mean of three assays; for inhibition at 50 µM: 50 μM compound; for IC50: dose-response
T1 sequence (P08253 110-660): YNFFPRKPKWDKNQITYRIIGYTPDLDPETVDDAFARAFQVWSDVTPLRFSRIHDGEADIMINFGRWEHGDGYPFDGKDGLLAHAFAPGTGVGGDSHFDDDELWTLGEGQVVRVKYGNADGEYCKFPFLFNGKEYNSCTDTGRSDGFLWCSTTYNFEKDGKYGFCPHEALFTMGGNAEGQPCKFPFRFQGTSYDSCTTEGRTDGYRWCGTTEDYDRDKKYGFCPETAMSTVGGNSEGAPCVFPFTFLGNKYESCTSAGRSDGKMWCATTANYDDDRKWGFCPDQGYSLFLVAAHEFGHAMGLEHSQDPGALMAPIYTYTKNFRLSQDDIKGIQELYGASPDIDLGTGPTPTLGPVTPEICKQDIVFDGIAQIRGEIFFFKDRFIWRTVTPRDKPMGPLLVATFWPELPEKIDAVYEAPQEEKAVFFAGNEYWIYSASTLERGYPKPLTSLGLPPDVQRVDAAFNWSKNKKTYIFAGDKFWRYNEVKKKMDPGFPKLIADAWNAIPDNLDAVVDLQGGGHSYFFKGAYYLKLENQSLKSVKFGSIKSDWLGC
Method: (§1) For all the compounds showing >50% inhibition activity the IC50 values were obtained by dose-response measurements using an inhibitor range of concentrations (0.01 nM–20 μM) and enzyme concentration equal to 1 nM.
(§2) The inhibition potency of hydroxamic acid derivatives against MMP2 and MMP9 was assayed through a fluorometric assay using the fluorogenic substrate Mca-Lys-Pro-Leu-Gly-Leu-Dpa-Ala-Arg-NH2 (Enzo life science). All the measurements were performed in 96-well plates with a Fluostar Optima microplate reader (BMG Labtech, Ortenberg, Germany). Excitation and emission wavelengths were 320 and 420 nm, respectively. All incubations were performed at 28 °C in 50 mM TrisHCl, 150 mM NaCl, 10 mM CaCl2, 0.05% Brij 35, 1% DMSO at pH 7.5. The inhibitors were pre-incubated with enzymes (1 nM) for 5 min at room temperature before the reaction was started by the addition of the fluorogenic substrate (3 µM). The […] of fluorescence was monitored over 30 min (λex = 320 nm, λem = 420 nm) at 28 °C. The percentages of inhibition for the test compounds were determined through the equation (1 − Vs/Vo) × 100, where vs. is the initial velocity in the presence of the inhibitor and V0 is the initial velocity of the uninhibited reaction. The IC50 values were obtained by dose-response measurements using inhibitor range of concentrations 0.00001–20 μM and enzyme concentration equal to 1 nM. A detergent-based assay was used to determine the presence of promiscuous inhibitors. All the experiments were performed in triplicates and data collected were analyzed using Graphpad 5.0 Software Package (GraphPad Prism Inc., San Diego, CA, USA).

[1] = target: T2, purified human integrin proteins αvβ3 (Homo sapiens, UniProt P05106+P06756); test: Solid-phase integrin binding assay (competition with biotinylated vitronectin); conditions: for inhibition at 0.1 µM / inhibition at 1 µM / inhibition at 10 µM: read-out: Inhibition % of biotinylated vitronectin specific binding to αvβ3
T2 construct: purchased Sino Biological Europe GmbH, Eschborn, Germany
Method: As regarding to the binding affinity towards αvβ3, the library was screened using an in vitro solid-phase assays were performed at 10, 1.0 and 0.1 μM concentration of the test compounds for their ability to compete with biotinylated vitronectin for binding to pure αvβ3 integrin isolated from human placenta, and % binding activity is reported in Table 2.
Purified αvβ3 receptors (Sino Biological Europe GmbH, Eschborn, Germany) were diluted to 0.5 μg/mL in coating buffer containing Tris-HCl (20 mmol/L; pH 7.4), NaCl (150 mmol/L), MnCl2 (1 mmol/L), CaCl2 (2 mmol/L) and MgCl2 (1 mmol/L). An aliquot of diluted receptors (100 μL per well) was added to 96-well microtiter plates (MW 96F Medisorp Straight Nunc, Thermo Fischer Scientific, Waltham, MA, USA) and incubated, overnight, at 4 °C. The plates were then incubated with blocking solution (coating buffer plus 5% bovine serum albumin) for an additional 2 h at room temperature to block nonspecific binding followed by 3 h incubation at room temperature with various concentrations of test compounds in the presence of vitronectine (1 μg/mL, Sigma Aldrich, Merck KGaA, Darmstadt, Germany) biotinylated by using EZ-Link Sulfo-NHS-Biotinylation kit (Thermo Fisher, Waltham, MA, USA). After washing, the plates were incubated for 1 h at room temperature with streptavidin–biotinylated peroxidase complex (GE Healthcare, Chicago, IL, USA), followed by 30 min incubation with substrate reagent solution (100 μL; R&D Systems) before stopping the reaction by addition of H2SO4 (2 N, 50 μL). Absorbance at 415 nm was read with a BMG Labtech Fluostar Optima microplate reader. All the experiments were performed in triplicates and data collected were analyzed using the GraphPad 5.0 Software Package.

MMP9 = MMP9 (Homo sapiens, UniProt P14780); test: Fluorometric enzyme inhibition assay with fluorogenic substrate Mca-Lys-Pro-Leu-Gly-Leu-Dpa-Ala-Arg-NH2 (MMP9); format: biochemical; conditions: for inhibition at 10 µM: 10 μM compound; for inhibition at 10 µM / inhibition at 50 µM / IC50: enzyme 1 nM; for inhibition at 10 µM / inhibition at 50 µM: mean of three assays; for inhibition at 50 µM: 50 μM compound; for IC50: dose-response
Method: as §1, §2

M21 human melanoma cells = test: Inhibition of integrin-mediated M21 cell adhesion to vitronectin; format: cell-based; conditions: 2 mM MnCl2, relative to vehicle (PBS); for inhibition at 0.3 µM / inhibition at 3 µM / inhibition at 30 µM: Homo sapiens, M21
Method: All the compounds but 17 were also tested for their integrin binding affinity towards M21 human melanoma cells that expresses high levels of αvβ3 heterodimer and using cilengitide as a control. Tests were performed in the presence of 2 mM MnCl2 to switch integrins of tumour cells into an activated form, and at final concentration of the compounds ranging from 30 μM to 0.3 μM (Table 3). […] We were pleased to find that compound 19 maintained a good inhibition potency at 0.3 μM as the lowest concentration used, thus confirming the capacity of this compound to inhibit the binding of M21 melanoma cells to vitronectin as an RGD-containing substrate.
The expression levels of αVβ3 integrin receptors on M21 melanoma cell lines were reported previously. Next, 96 wells plates were coated overnight, at 4 °C, with vitronectin (5 μg/mL in PBS) (V8379 Sigma). Plates were, then washed with phosphate buffered saline (PBS) solution and incubated at 37 °C for 1 h with PBS containing 1% bovine serum albumin (BSA). M21 cells were centrifugated (RT, at 700× g) in PBS, to remove serum. Cells were counted and suspended in serum-free medium at 5.0 × 10^5 cells/mL. Melanoma cell suspensions were pre-incubated with different amounts of the compounds. The final concentration ranged from 30 uM to 0.3 uM, using cilengitide as a control. The incubation was performed at 37 °C for 30 min to allow the ligand-receptor equilibrium to be reached. Next, cells were plated on VN substrata (5–6 × 10^4 cells/well) and incubated at 37 °C for 1 h. The assays were conducted in the presence of 2 mmol/L MnCl2 [26]. At the end of the incubation, plates were washed with PBS to remove the non-adherent cells, and 200 μL of 0.5% crystal violet solution in 20% methanol were added. After 2 h of static incubation at 4 °C, plates were examined at 540 nm in a counter ELX800 (Bio TEK Instruments, Winooski, VT, USA). Experiments were done in triplicate and repeated at least three times. The values are expressed as % inhibition of cell adhesion relative to cells exposed to vehicle alone (PBS).

NCCCOc1ccc(C[C@H](NS(=O)(=O)c2ccc(-c3ccccc3)cc2)C(=O)NO)cc1 [Compound 19, (S)-2-([1,1′-Biphenyl]-4-ylsulfonamido)-3-(4-(3-aminopropoxy)phenyl)-N-hydroxypropanamide]
IC50 towards MMP2, in words (MMP2): nanomolar range
inhibition at 10 µM (MMP2): 100%
inhibition at 50 µM (MMP2): 100%
IC50 (MMP2): 55 nM
inhibition at 0.1 µM [1]: 21%
inhibition at 1 µM [1]: 41%
inhibition at 10 µM [1]: 88%
IC50 ([1]; dose-response assay, read-out: IC50 (αvβ3), inhibition of biotinylated vitronectin binding): 370 nM
inhibition at 10 µM (MMP9): 100%
inhibition at 50 µM (MMP9): 100%
IC50 (MMP9): 38 nM
IC50 towards MMP9, in words (MMP9; statement in text (gelatinases)): nanomolar range
inhibition at 0.3 µM (M21 human melanoma cells; at 0.3 μM): 57.8%
inhibition at 3 µM (M21 human melanoma cells; at 3 μM): 35.8%
inhibition at 30 µM (M21 human melanoma cells; at 30 μM): 65.7%

NCCCOc1ccc(C[C@H](NS(=O)(=O)c2ccc([N+](=O)[O-])cc2)C(=O)O)cc1 [Compound 17, (S)-3-(4-(3-Aminopropoxy)phenyl)-2-(4-nitrophenylsulfonamido)propanoic Acid]
inhibition at 10 µM (MMP2): 0%
inhibition at 50 µM (MMP2): 0%
inhibition at 0.1 µM [1]: 0%
inhibition at 1 µM [1]: 0%
inhibition at 10 µM [1]: 0%
inhibition at 10 µM (MMP9): 0%
inhibition at 50 µM (MMP9): 0%

N=C(N)NCCCOc1ccc(C[C@H](NS(=O)(=O)c2ccccc2)C(=O)NO)cc1 [Compound 18, (S)-3-(4-(3-Guanidinopropoxy)phenyl)-N-hydroxy-2-(phenylsulfonamido)propanamide]
inhibition at 10 µM (MMP2): 52%
inhibition at 50 µM (MMP2): 75%
IC50 (MMP2): 760 nM
inhibition at 0.1 µM [1]: 0%
inhibition at 1 µM [1]: 0%
inhibition at 10 µM [1]: 27%
inhibition at 10 µM (MMP9): 42%
inhibition at 50 µM (MMP9): 63%
IC50 (MMP9): 1300 nM
inhibition at 0.3 µM (M21 human melanoma cells; at 0.3 μM): 44.9%
inhibition at 3 µM (M21 human melanoma cells; at 3 μM): 64.3%
inhibition at 30 µM (M21 human melanoma cells; at 30 μM): 74.1%

c[RGDf(Me)V] [Cilengitide, reference compound]
Inhibition % of M21 cell adhesion to vitronectin (M21 human melanoma cells; at 0.3 μM): 80%
Inhibition % of M21 cell adhesion to vitronectin (M21 human melanoma cells; at 3 μM): 76%
Inhibition % of M21 cell adhesion to vitronectin (M21 human melanoma cells; at 30 μM): 62%

N=C(N)NCCCOc1ccc(C[C@H](NS(=O)(=O)c2ccc(-c3ccccc3)cc2)C(=O)O)cc1 [Compound 10, (S)-2-([1,1′-Biphenyl]-4-ylsulfonamido)-3-(4-(3-guanidinopropoxy)phenyl)propanoic Acid]
inhibition at 10 µM (MMP2): 16%
inhibition at 50 µM (MMP2): 41%
inhibition at 0.1 µM [1]: 8%
inhibition at 1 µM [1]: 1%
inhibition at 10 µM [1]: 5%
inhibition at 10 µM (MMP9): 0%
inhibition at 50 µM (MMP9): 0%
inhibition at 0.3 µM (M21 human melanoma cells; at 0.3 μM): 43.8%
inhibition at 3 µM (M21 human melanoma cells; at 3 μM): 76.7%
inhibition at 30 µM (M21 human melanoma cells; at 30 μM): 76.9%

O=C(NO)[C@H](Cc1ccc(O)cc1)NS(=O)(=O)c1ccc(-c2ccccc2)cc1 [Compound 21, (S)-2-([1,1′-Biphenyl]-4-ylsulfonamido)-N-hydroxy-3-(4-hydroxyphenyl)propanamide]
inhibition at 10 µM (MMP2): 97%
inhibition at 50 µM (MMP2): 100%
IC50 (MMP2): 37 nM
inhibition at 0.1 µM [1]: 20%
inhibition at 1 µM [1]: 12%
inhibition at 10 µM [1]: 2%
inhibition at 10 µM (MMP9): 63%
inhibition at 50 µM (MMP9): 73%
IC50 (MMP9): 361 nM
inhibition at 0.3 µM (M21 human melanoma cells; at 0.3 μM): 29.7%
inhibition at 3 µM (M21 human melanoma cells; at 3 μM): 28.8%
inhibition at 30 µM (M21 human melanoma cells; at 30 μM): 17.4%

N=C(N)NCCCOc1ccc(C[C@H](NS(=O)(=O)c2ccccc2)C(=O)O)cc1 [Compound 9, (S)-3-(4-(3-Guanidinopropoxy)phenyl)-2-(phenylsulfonamido)propanoic Acid]
inhibition at 10 µM (MMP2): 0%
inhibition at 50 µM (MMP2): 21%
inhibition at 0.1 µM [1]: 0%
inhibition at 1 µM [1]: 18%
inhibition at 10 µM [1]: 54%
inhibition at 10 µM (MMP9): 0%
inhibition at 50 µM (MMP9): 0%
inhibition at 0.3 µM (M21 human melanoma cells; at 0.3 μM): 41.4%
inhibition at 3 µM (M21 human melanoma cells; at 3 μM): 62.5%
inhibition at 30 µM (M21 human melanoma cells; at 30 μM): 75.9%

NCCCOc1ccc(C[C@H](NS(=O)(=O)c2ccc(-c3ccccc3)cc2)C(=O)O)cc1 [Compound 16, (S)-2-([1,1′-Biphenyl]-4-ylsulfonamido)-3-(4-(3-aminopropoxy)phenyl)propanoic Acid]
IC50 towards MMP2, in words (MMP2): micromolar range
inhibition at 10 µM (MMP2): 60%
inhibition at 50 µM (MMP2): 79%
IC50 (MMP2): 1200 nM
inhibition at 0.1 µM [1]: 26%
inhibition at 1 µM [1]: 26%
inhibition at 10 µM [1]: 19%
inhibition at 10 µM (MMP9): 0%
inhibition at 50 µM (MMP9): 0%
inhibition at 0.3 µM (M21 human melanoma cells; at 0.3 μM): 28%
inhibition at 3 µM (M21 human melanoma cells; at 3 μM): 28.9%
inhibition at 30 µM (M21 human melanoma cells; at 30 μM): 68.5%
